Source: US20220112267A1, “PRODUCE AND ISOLATE AND/OR EXTRACT COLLAGEN AND/OR GELATIN FROM ANIMAL CELL LINES AND/OR TISSUE EXPLANTS” (Jellatech, Inc., priority 2020, published 2022)

Key:
Type in all cases: cell-based
bovine cells [1] = test: Effects of ginseng, palmitoleic acid and spirulina on total protein content in bovine cells (FIG. 8-10)
Description: (§1) Moreover, FIG. 8 depicts a graph showing effects of ginseng on collagen production in various cell types. FIG. 8 has an x-axis 802 associated with a cell type and a ginseng concentration in μg/mL and a […] measuring a collagen concentration 806 and a protein concentration 808.
(§2) Further, FIG. 9 depicts a graph showing effects of palmitoleic acid on collagen production in various cell types. FIG. 9 has an x-axis 902 associated with a cell type and a palmitoleic acid concentration in μg/mL and a y-axis 904 measuring a collagen concentration 906 and a protein concentration 908.
(§3) FIG. 10 depicts a graph showing effects of a spirulina extract on collagen production in various cell types. FIG. 10 has an x-axis 1002 associated with a cell type and a spirulina extract concentration in μg/mL and a y-axis 1004 measuring a collagen concentration 1006 and a protein concentration 1008.
(§4) However, a total protein content is increased in bovine cells.

various cell types = test: Effects of ginseng, palmitoleic acid and spirulina on collagen production in various cell types (FIG. 8-10)
Description: as §1, §2, §3, §4

human KEL-FIB cell line = test: Factor supplementation, Sircol Collagen Assay, human KEL-FIB cell line; conditions: for collagen production: 3-10 days with factor
Experimental: (§5) In this embodiment, cells were seeded at approximately 3500-4500 cells per well of a 48 well-plate and were allowed to settle for about 48 hours before adding the factor. After about 48 hours, spent media was removed and replaced with growth media supplemented with the factor of interest. Cells continued to grow for about 3-10 days following initial introduction of the factor and a collagen content was quantified with a Sircol™ Collagen Assay. Additionally, experiments were conducted with and without media/factor replenishment about every 48-72 hours.

porcine cell line = test: Factor supplementation, Sircol Collagen Assay, commercially available porcine cell line; conditions: 3-10 days with factor
Experimental: as §5

bovine cell lines = test: Factor supplementation, Sircol Collagen Assay, commercially available bovine cell lines; conditions: for collagen production: commercially available bovine cell lines, 3-10 days with factor
Experimental: as §5

human cells = test: Collagen production under different concentrations of vitamin C, human cells (FIG. 7C, 7D); conditions: seeding density 40,000 or 70,000 cells/well, 96 well plate
Description: (§6) In another example, a collagen detection method using a dual dye assay is described and depicted in FIG. 4. This method measures collagen content of samples using dyes in order to estimate collagen production of adherent cells in cultures without extracting the collagen. Samples may include bovine derma primary fibroblast cell lines or BJ human fibroblast/primary cells, among others not explicitly listed herein. Materials utilized in the method of FIG. 4 include: about 70% ethanol, sterile water, picric acid (or 2,4,6-trinitrophenol), about 0.1% Fast Green FCF solution in saturated picric acid, about 0.4% Fast Green FCF solution and about 0.11% Sirius Red in the saturated picric acid, and about 0.1% NaOH in methanol. The Fast Green FCF dye is used for total protein and the Sirius Red dye is used for collagen content determination. Equipment utilized with the method of FIG. 4 includes a laminar flow cabinet, a spectrophotometer, and a pipette. A process step 406 follows the process step 404 and includes adding a saturated solution of picric acid in distilled water containing a first amount of the Fast Green dye. In examples, the first amount of the Fast Green dye is about 0.01%. […] A process step 420 follows the process step 418 and includes utilizing the spectrophotometer to measure an absorbance at 540 nm and 630 nm. […]

bovine cells [2] = test: Collagen production under different concentrations of vitamin C, bovine cells (FIG. 7A, 7B); conditions: seeding density 40,000 or 70,000 cells/well, 96 well plate
Description: as §6

Compound	total protein content (bovine cells [1])	effect on collagen production (various cell types)	increase of collagen production (human KEL-FIB cell line)	collagen production (human KEL-FIB cell line)	collagen production (porcine cell line)	increase of collagen production (bovine cell lines; bovine cell lines)	collagen production (bovine cell lines)	concentration of vitamin C at which the highest collagen concentration resulted (human cells) [mg/mL]	concentration of vitamin C at which the highest collagen concentration resulted (bovine cells [2]) [mg/mL]
CCCCCC/C=C\CCCCCCCC(=O)O [palmitoleic acid]	increased	do not have a large effect	–	–	–	–	–	–	–
O=C1O[C@H]([C@@H](O)CO)C(O)=C1O [vitamin C]	–	–	about 50%	increased	increased	28-36%	increased	10 to 100	10 to 100
O=S(=O)([O-])[O-].[Zn+2] [zinc sulfate]	–	–	–	increased	increased	–	increased	–	–
